# Test results reported in patent publication EP2649091B1, “IMMUNE RESTRICTED PEPTIDES WITH INCREASED EFFICACY” (Stichting Het Nederlands Kanker Instituut, priority 2010, dated 2012).
# Values joined by “and” are separate entries in the source; they are usually repeats but may differ in a detail not shown here. Identical values can stand only once. Where no end group is shown, it is not given here. BUTALA = not defined here; PHG = not defined here
# Key:
# [1] = target: HLA-A0201 (Homo sapiens, UniProt P04439, D140Y/D185E/D98H/E176V/E277Q/G131W/G231S/I119V/I121R/I166T/I218V/L300P/L318F/N151K/N90K/P208A/P217A/Q86G/Q94H/R138H/R169H/T345S); assay type: binding
# [2] = tested on: CD8+ T cells from Influenza A positive donors sorted using tetramers containing HLA A2.1::[…]; assay type: cell-based
# [3] = tested on: CD8+ T cells from Influenza A positive donors sorted using tetramers containing HLA A2.1::[…]; assay type: cell-based; remark: listed apart in the source
# [4] = tested on: HLA-A2::Mart-1(26-35) reactive T cells stimulated by T2 cells; test: T cell activation time course assay, IFNγ production (FACS), Mart-1 epitope; assay type: cell-based; conditions: for % CD8+ T cells producing IFN-γ 0H / Geometric mean IFN-γ in arbitrary fluorescence units 0H: time point 0H (basal); for % CD8+ T cells producing IFN-γ 2H / Geometric mean IFN-γ in arbitrary fluorescence units 2H: time point 2H; for % CD8+ T cells producing IFN-γ 4H / Geometric mean IFN-γ in arbitrary fluorescence units 4H: time point 4H; for % CD8+ T cells producing IFN-γ 24H / Geometric mean IFN-γ in arbitrary fluorescence units 24H: time point 24H; for % CD8+ T cells producing IFN-γ 24H / Geometric mean IFN-γ in arbitrary fluorescence units 24H / % CD8+ T cells producing IFN-γ 48H / Geometric mean IFN-γ in arbitrary fluorescence units 48H: free peptide washed away; for % CD8+ T cells producing IFN-γ 48H / Geometric mean IFN-γ in arbitrary fluorescence units 48H: time point 48H
# [5] = tested on: SVYDFFVWL (TRP-2 180-188) reactive T cells; test: T cell activation time course assay, IFNγ production (FACS), TRP-2 epitope
substance,measurement,setting,value
[PHG]I[NLE]GFVFTL,% inhibition at T=4H and T=24H FP 4h,[1],86%
same,% inhibition at T=4H and T=24H FP 24h,[1],84%
same,IC50 Ratio,[1],3
same,% Positive TCR recognition % TCR,[2],3.26%
same,Geometric mean IFN in arbitrary fluorescence units Geo TCR,[2],235 arbitrary fluorescence units
same,% CD8+ T cells producing IFN-γ % IFN,[3],2.9%
same,Geometric mean IFN-γ in arbitrary fluorescence units Geo IFN,[3],270 arbitrary fluorescence units
[PHG][BUTALA]LGFVFTL ({PHG-BUTALA}-LGFVFTL; reading uncertain),% inhibition at T=4H and T=24H FP 24h,[1],75%
same,% Positive TCR recognition % TCR,[2],3.16%
same,Geometric mean IFN in arbitrary fluorescence units Geo TCR,[2],464 arbitrary fluorescence units
same,% CD8+ T cells producing IFN-γ % IFN,[3],2.5%
same,Geometric mean IFN-γ in arbitrary fluorescence units Geo IFN,[3],249 arbitrary fluorescence units
[PHG][NLE]LGFVFTL,% inhibition at T=4H and T=24H FP 4h,[1],77%
same,% inhibition at T=4H and T=24H FP 24h,[1],77%
same,IC50 Ratio,[1],4
same,% Positive TCR recognition % TCR,[2],3.58%
same,Geometric mean IFN in arbitrary fluorescence units Geo TCR,[2],328 arbitrary fluorescence units
same,% CD8+ T cells producing IFN-γ % IFN,[3],2.7%
same,Geometric mean IFN-γ in arbitrary fluorescence units Geo IFN,[3],238 arbitrary fluorescence units
[am-phg]ILGFV[4-FPHE]TL,% inhibition at T=4H and T=24H FP 4h,[1],92%
same,% inhibition at T=4H and T=24H FP 24h,[1],93%
same,IC50 Ratio,[1],6
same,% Positive TCR recognition % TCR,[2],3.27%
same,Geometric mean IFN in arbitrary fluorescence units Geo TCR,[2],197 arbitrary fluorescence units
same,% CD8+ T cells producing IFN-γ % IFN,[3],2.2%
same,Geometric mean IFN-γ in arbitrary fluorescence units Geo IFN,[3],208 arbitrary fluorescence units
[am-phg][2-AOC]AGIGILT[PRG],% inhibition at T=4H and T=24H FP 4h,[1],80%
same,% inhibition at T=4H and T=24H FP 24h,[1],77%
same,IC50 Ratio,[1],24.3 and 24
same,% CD8+ T cells producing IFN-γ 0H,[4]; peptide 0.5 pM,0%
same,Geometric mean IFN-γ in arbitrary fluorescence units 0H,[4]; peptide 0.5 pM,104 arbitrary fluorescence units
same,% CD8+ T cells producing IFN-γ 2H,[4]; peptide 0.5 pM,26%
same,Geometric mean IFN-γ in arbitrary fluorescence units 2H,[4]; peptide 0.5 pM,207 arbitrary fluorescence units
same,% CD8+ T cells producing IFN-γ 4H,[4]; peptide 0.5 pM,30%
same,Geometric mean IFN-γ in arbitrary fluorescence units 4H,[4]; peptide 0.5 pM,378 arbitrary fluorescence units
same,% CD8+ T cells producing IFN-γ 24H,[4]; peptide 0.5 pM,1%
same,Geometric mean IFN-γ in arbitrary fluorescence units 24H,[4]; peptide 0.5 pM,116 arbitrary fluorescence units
same,% CD8+ T cells producing IFN-γ 48H,[4]; peptide 0.5 pM,0%
same,Geometric mean IFN-γ in arbitrary fluorescence units 48H,[4]; peptide 0.5 pM,88 arbitrary fluorescence units
same,% CD8+ T cells producing IFN-γ 0H,[4]; peptide 50 pM,0%
same,Geometric mean IFN-γ in arbitrary fluorescence units 0H,[4]; peptide 50 pM,109 arbitrary fluorescence units
same,% CD8+ T cells producing IFN-γ 2H,[4]; peptide 50 pM,27%
same,Geometric mean IFN-γ in arbitrary fluorescence units 2H,[4]; peptide 50 pM,258 arbitrary fluorescence units
same,% CD8+ T cells producing IFN-γ 4H,[4]; peptide 50 pM,30%
same,Geometric mean IFN-γ in arbitrary fluorescence units 4H,[4]; peptide 50 pM,592 arbitrary fluorescence units
same,% CD8+ T cells producing IFN-γ 24H,[4]; peptide 50 pM,16%
same,Geometric mean IFN-γ in arbitrary fluorescence units 24H,[4]; peptide 50 pM,187 arbitrary fluorescence units
same,% CD8+ T cells producing IFN-γ 48H,[4]; peptide 50 pM,1%
same,Geometric mean IFN-γ in arbitrary fluorescence units 48H,[4]; peptide 50 pM,86 arbitrary fluorescence units
[am-phg][2-AOC]YDFFVWL,% inhibition at T=4H and T=24H FP 4h,[1],94%
same,% inhibition at T=4H and T=24H FP 24h,[1],87%
same,% CD8+ T cells producing IFN-γ peptide concentrations in picomolar 24H 0.5,"[5]; 24H, peptide 0.5 pM",0%
same,Geometric mean IFN-γ in arbitrary fluorescence units peptide concentrations in picomolar 24H 0.5,"[5]; 24H, peptide 0.5 pM",78 arbitrary fluorescence units
same,% CD8+ T cells producing IFN-γ peptide concentrations in picomolar 24H 50,"[5]; 24H, peptide 50 pM",12%
same,Geometric mean IFN-γ in arbitrary fluorescence units peptide concentrations in picomolar 24H 50,"[5]; 24H, peptide 50 pM",82 arbitrary fluorescence units
same,% CD8+ T cells producing IFN-γ peptide concentrations in picomolar 24H 5·10^3,"[5]; 24H, peptide 5·10^3 pM",31%
same,Geometric mean IFN-γ in arbitrary fluorescence units peptide concentrations in picomolar 24H 5·10^3,"[5]; 24H, peptide 5·10^3 pM",215 arbitrary fluorescence units
same,% CD8+ T cells producing IFN-γ peptide concentrations in picomolar 48H 0.5,"[5]; 48H, peptide 0.5 pM",0%
same,Geometric mean IFN-γ in arbitrary fluorescence units peptide concentrations in picomolar 48H 0.5,"[5]; 48H, peptide 0.5 pM",88 arbitrary fluorescence units
same,% CD8+ T cells producing IFN-γ peptide concentrations in picomolar 48H 50,"[5]; 48H, peptide 50 pM",1%
same,Geometric mean IFN-γ in arbitrary fluorescence units peptide concentrations in picomolar 48H 50,"[5]; 48H, peptide 50 pM",70 arbitrary fluorescence units
same,% CD8+ T cells producing IFN-γ peptide concentrations in picomolar 48H 5·10^3,"[5]; 48H, peptide 5·10^3 pM",30%
same,Geometric mean IFN-γ in arbitrary fluorescence units peptide concentrations in picomolar 48H 5·10^3,"[5]; 48H, peptide 5·10^3 pM",143 arbitrary fluorescence units
